What was measured:
EGFR-viii = molecular target: T1, EGFR-viii (Homo sapiens, UniProt P00533, DELINS30-297G); assay: PhosphoY1173-EGFR-viii in-cell ELISA in U87MG tumor cells engineered to express EGFR-viii; format: cell-based; conditions: U87MG tumor cells expressing EGFR-viii; for activity against EGFR-viii: in words
T1 construct: expressed in transfected cells; host or cells: U87MG (ATCC), lentiviral infection, puromycin selection
Description: Data are expressed as EC50 and were determined using an in-cell ELISA kit (Pierce).

[1] = tested on: tumors expressing EGFR-viii; conditions: clinical studies (Vivanco 2012, Reardon 2014); cited from earlier work

| SMILES | activity against EGFR-viii (EGFR-viii; in-cell ELISA) | also measured |
| --- | --- | --- |
| C=CC(=O)Nc1cccc(Oc2nc(Nc3ccc(N4CCN(C)CC4)cc3)ncc2Cl)c1 [WZ3146] | weak activity |  |
| CS(=O)(=O)CCNCc1ccc(-c2ccc3ncnc(Nc4ccc(OCc5cccc(F)c5)c(Cl)c4)c3c2)o1 [Lapatinib, lapatinib] |  | cancer growth inhibition in clinical studies [1]: insignificant cancer growth inhibition |
| C=CC(=O)Nc1cccc(Sc2nc(Nc3ccc(N4CCN(C)CC4)cc3)ncc2Cl)c1 [WZ8040] | weak activity |  |
| C=CC(=O)Nc1cccc(Nc2nc(Nc3ccc(N4CCN(C(C)=O)CC4)cc3OC)ncc2C(F)(F)F)c1 [CO-1686] | weak activity |  |
| C=CC(=O)Nc1ccc2ncnc(Nc3ccc(OCc4cccc(F)c4)c(Cl)c3)c2c1 [AST-1306] |  | potency against EGFR-viii relative to WZ4002, WZ8040, WZ3146, CO-1686 and AZD9291 (EGFR-viii): at least ten-fold more potent; EC50 (EGFR-viii; in-cell ELISA, read-out: EC50 against EGFR-viii (phosphoY1173-EGFRviii)): < 50 nM |

Source: patent US20180117053A1, “The Method of Use for Inhibitors of Epidermal Growth Factor Receptor Variants II, III and VI” (Metastat, Inc., priority 2015, published 2018)
